Test results taken from ChEMBL document CHEMBL1201862, “PubChem BioAssay data set” (2004).
Calls of active or inactive are those of the source.

Assays:
[1] = target: T1, Short transient receptor potential channel 4 (Mus musculus, UniProt Q9QUQ5); experiment: calcium entry via TRPC4 opening agents – cell-based, HEK293 TRPC4/mu-opioid, Fluo-4 calcium, dose response (AID 434937); type: functional
T1 sequence (Q9QUQ5 whole entry): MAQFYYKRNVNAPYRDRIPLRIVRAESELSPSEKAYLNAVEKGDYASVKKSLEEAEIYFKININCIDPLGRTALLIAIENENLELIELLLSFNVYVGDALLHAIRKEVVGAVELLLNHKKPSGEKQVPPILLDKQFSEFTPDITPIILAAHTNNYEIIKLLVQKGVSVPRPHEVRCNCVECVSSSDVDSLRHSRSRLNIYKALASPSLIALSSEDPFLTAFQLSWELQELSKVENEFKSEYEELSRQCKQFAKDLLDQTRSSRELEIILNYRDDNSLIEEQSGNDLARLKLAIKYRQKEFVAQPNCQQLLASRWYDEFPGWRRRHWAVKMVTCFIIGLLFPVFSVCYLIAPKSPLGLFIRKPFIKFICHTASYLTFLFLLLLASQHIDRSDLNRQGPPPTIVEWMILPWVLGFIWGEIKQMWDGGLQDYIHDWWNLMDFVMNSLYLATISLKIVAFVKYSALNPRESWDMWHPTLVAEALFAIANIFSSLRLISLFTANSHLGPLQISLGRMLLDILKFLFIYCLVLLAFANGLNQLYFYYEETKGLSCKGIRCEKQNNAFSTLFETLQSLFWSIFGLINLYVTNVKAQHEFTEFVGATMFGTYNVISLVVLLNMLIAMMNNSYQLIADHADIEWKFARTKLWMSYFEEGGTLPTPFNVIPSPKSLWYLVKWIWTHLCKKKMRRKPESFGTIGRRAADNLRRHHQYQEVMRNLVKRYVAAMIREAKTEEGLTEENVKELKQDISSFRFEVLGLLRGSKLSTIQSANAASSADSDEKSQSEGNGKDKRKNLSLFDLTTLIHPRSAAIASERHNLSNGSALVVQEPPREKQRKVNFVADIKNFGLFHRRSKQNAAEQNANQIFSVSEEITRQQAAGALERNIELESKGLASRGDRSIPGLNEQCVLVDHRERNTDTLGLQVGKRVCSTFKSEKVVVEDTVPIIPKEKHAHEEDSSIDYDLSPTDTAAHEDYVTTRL

[2] = HIV-1 AD8 envelope cell-cell fusion blockers – cherry-pick, dose response (AID 652062); type: functional, cell-based;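 note: luciferase signal from cell-cell fusion driven by HIV-1 clade B AD8 Env; potency is for inhibitors of fusion seen as a drop in luminescence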
[3] = target: T2, Protein skinhead-1 (Caenorhabditis elegans, UniProt P34707); type: functional
T2 sequence (P34707 whole entry): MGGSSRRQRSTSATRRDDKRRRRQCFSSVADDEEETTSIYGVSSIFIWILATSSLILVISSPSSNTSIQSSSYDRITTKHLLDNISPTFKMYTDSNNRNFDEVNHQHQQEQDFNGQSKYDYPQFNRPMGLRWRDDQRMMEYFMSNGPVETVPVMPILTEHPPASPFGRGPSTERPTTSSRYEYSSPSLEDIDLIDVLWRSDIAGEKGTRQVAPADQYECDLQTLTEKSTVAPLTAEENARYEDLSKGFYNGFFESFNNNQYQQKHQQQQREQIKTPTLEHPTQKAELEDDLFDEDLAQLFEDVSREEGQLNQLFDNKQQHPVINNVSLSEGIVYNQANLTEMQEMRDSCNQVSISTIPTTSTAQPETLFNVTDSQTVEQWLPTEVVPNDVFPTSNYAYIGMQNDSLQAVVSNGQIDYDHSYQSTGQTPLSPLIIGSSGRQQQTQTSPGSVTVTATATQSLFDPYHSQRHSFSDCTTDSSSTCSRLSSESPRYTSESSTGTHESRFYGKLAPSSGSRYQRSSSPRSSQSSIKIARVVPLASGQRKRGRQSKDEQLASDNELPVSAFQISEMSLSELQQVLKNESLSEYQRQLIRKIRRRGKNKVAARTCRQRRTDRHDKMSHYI

[4] = intracellular Trypanosoma cruzi inhibitors in host cells – cell-based, plate reader, cherry-pick samples, set 3, dose response (AID 651818); type: functional;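 note: compounds incubated with infected cells for about four days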
[5] = target: Glyceraldehyde-3-phosphate dehydrogenase (Homo sapiens, UniProt P04406)
Glyceraldehyde-3-phosphate dehydrogenase, sequence (P04406 whole entry): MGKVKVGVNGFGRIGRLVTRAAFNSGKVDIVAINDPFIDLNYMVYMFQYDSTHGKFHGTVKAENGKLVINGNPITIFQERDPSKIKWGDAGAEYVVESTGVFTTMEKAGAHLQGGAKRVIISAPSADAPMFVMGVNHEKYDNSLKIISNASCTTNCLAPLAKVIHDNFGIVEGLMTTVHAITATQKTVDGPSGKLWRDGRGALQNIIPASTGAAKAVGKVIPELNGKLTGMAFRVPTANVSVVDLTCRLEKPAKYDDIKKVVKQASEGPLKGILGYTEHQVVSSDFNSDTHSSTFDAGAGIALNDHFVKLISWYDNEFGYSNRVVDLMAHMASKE

[6] = Trypanosoma cruzi growth suppression in host cells – NIH3T3 host cells, beta-gal luminescence, confirmation (AID 2044); type: functional, cell-based;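 note: intracellular parasites grown in NIH/3T3 mouse fibroblasts as host cells; luminescent beta-galactosidase reporter signal from transgenic T. cruzi replicating inside host cells; inhibitors lower the luminescence signal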
[7] = NIH3T3 cell viability loss – ATP luminescence, mouse fibroblasts, counter-screen, dose response (AID 2010); type: functional, cell-based;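 note: cells exposed to compound for about 90 hours before reading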
[8] = target: T3, DNA repair protein RAD52 homolog (Homo sapiens, UniProt P43351); type: functional, biochemical
T3 sequence (P43351 whole entry): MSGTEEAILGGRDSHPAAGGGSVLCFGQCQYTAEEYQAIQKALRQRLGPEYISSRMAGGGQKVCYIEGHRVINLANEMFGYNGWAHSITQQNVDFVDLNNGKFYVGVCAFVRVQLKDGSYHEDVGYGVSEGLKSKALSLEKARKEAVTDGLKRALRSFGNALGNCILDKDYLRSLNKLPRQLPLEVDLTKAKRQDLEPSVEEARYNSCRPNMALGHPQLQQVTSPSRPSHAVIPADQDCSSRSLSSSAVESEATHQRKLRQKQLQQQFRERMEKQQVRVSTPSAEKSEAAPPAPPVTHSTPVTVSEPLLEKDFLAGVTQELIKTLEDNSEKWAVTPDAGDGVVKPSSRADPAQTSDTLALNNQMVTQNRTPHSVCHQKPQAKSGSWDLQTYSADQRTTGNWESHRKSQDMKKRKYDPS

[9] = tested on: P388/ADR; experiment: cells; type: functional; conditions: Mus musculus
[10] = tested on: SN12K1; experiment: cells; type: functional; conditions: Homo sapiens, SN12K1
[11] = tested on: P388; experiment: cells; type: functional; conditions: Mus musculus, P388
[12] = luciferase reporter signal suppression in cells – H4 neuroglioma cells, luminescence, dose response (AID 1990); type: functional, cell-based
[13] = Luminescence Cell-Based Dose Response HTS to Identify Inhibitors of 5'UTR Stem-Loop Driven Prion Protein mRNA Translation in H4 Neuroglioblastoma Cells. [Related pubchem assays: 1827 (Project Summary), 1813 (Primary HTS)]; type: functional
[14] = target: T4, Heat shock factor protein 1 (Mus musculus, UniProt P38532); experiment: decrease of HSF1-responsive luciferase luminescence – cell-based, NIH3T3, dose retest, confirmation (AID 2382); type: functional;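 note: NIH3T3 fibroblasts with HSF1-driven luciferase reporter stressed by proteasome inhibitor MG132; luminescence from HSF1-driven luciferase expression after 8 hours of MG132 stress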
T4 sequence (P38532 whole entry): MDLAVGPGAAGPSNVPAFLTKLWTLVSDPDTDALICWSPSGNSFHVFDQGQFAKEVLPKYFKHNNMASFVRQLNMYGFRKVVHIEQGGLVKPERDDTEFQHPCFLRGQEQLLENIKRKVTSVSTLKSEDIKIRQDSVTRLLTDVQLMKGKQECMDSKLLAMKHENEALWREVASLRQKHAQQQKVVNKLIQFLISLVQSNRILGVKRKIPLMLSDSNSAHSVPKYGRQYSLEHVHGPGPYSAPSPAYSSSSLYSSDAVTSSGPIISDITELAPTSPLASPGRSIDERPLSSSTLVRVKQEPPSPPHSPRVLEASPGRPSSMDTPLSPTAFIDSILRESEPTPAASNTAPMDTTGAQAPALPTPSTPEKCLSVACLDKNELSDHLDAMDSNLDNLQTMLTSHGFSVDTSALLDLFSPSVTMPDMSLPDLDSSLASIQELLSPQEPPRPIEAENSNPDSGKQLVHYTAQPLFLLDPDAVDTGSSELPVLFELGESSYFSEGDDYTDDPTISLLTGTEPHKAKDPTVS

[15] = alpha-synuclein stem-loop luciferase translation blockers – H4 neuroglioma cells, luminescence, confirmation (AID 1988); type: functional, cell-based
[16] = A549 cell cytotoxicity, dose response, cytotoxicity control, plate reader, cherry-pick, antagonist series (AID 743412); type: functional, cell-based
[17] = blockers of bursicon-stimulated LGR2 cAMP reporter – cell-based, HEK293, CRE-luciferase reporter, cherry pick, set 2, dose response (AID 743343); type: functional;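 note: transfected cells were stimulated with diluted bursicon conditioned medium after compound addition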
[18] = blockade of melanocortin 4 receptor signaling – cell-based, plate reader, cherry pick, counter-screen for LGR2 antagonist project, dose response (AID 743444); type: functional;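 note: transfected HEK 293 cells stimulated with alpha-MSH peptide; potency of inhibitors of the alpha-MSH evoked signal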

## CCC1CCCCN1S(=O)(=O)c1ccc(C(=O)N(CCCN(C)C)c2nc3cc4c(cc3s2)OCO4)cc1 (stereo not given)
[1]
  EC50: 6.68 µM (active)

## O=C(N/N=C/c1ccco1)C1COc2ccccc2O1 (stereo not given)
[1]
  EC50: 4.22 µM (active)

## O=C(COC(=O)c1ncc(Cl)c(Cl)c1Cl)NCc1cccs1
[2]
  AC50: 1.12 µM (active)

## COc1ccc(CN(C(=O)c2oc3ccccc3c2C)C2CCS(=O)(=O)C2)cc1 (stereo not given)
[3]
  IC50: > 100 µM (inactive)

## COc1ccccc1N1CCN(C(c2cccs2)C(C)NC(=O)c2cccs2)CC1 (stereo not given)
[1]
  EC50: 0.335 µM (active)

## C[C@@H]1CCCCO[C@H](CN(C)Cc2ccc3c(c2)OCO3)[C@@H](C)CN([C@H](C)CO)C(=O)c2cc(NC(=O)Nc3ccc(C(F)(F)F)cc3)ccc2O1
[4]
  AC50: 2.16 µM (active)

## Fc1ccc(-c2csc(N3CCSCC3)n2)cc1
[3]
  IC50: > 100 µM (inactive)

## CCOc1ccc(S(=O)(=O)Nc2ccc(O)c(C(=O)O)c2)cc1
[5]
  IC50: > 100 µM (not active)

## C[C@@H]1CN([C@@H](C)CO)C(=O)c2cccc(NC(=O)c3ccc(-c4nccs4)cc3)c2O[C@@H]1CN(C)Cc1ccc(C(=O)Nc2ccccc2N)cc1
[4]
  AC50: 1.61 µM (active)

## COc1ccc(NC(=O)Nc2ccc3c(c2)C(=O)N([C@@H](C)CO)C[C@H](C)[C@@H](CN(C)Cc2ccc(-c4ccccc4)cc2)O3)cc1
[4]
  AC50: 5.13 µM (active)

## C[C@@H]1CN([C@H](C)CO)C(=O)c2cccc(NS(=O)(=O)c3ccc(Cl)cc3)c2O[C@H]1CN(C)Cc1ccc(C(=O)Nc2ccccc2N)cc1
[4]
  AC50: 1.77 µM (active)

## C[C@H]1CN([C@@H](C)CO)C(=O)Cc2cc(NS(=O)(=O)c3ccccc3)ccc2O[C@@H]1CN(C)Cc1ccc(-c2ccccc2)cc1
[4]
  AC50: 5.32 µM (active)

## Cc1cc(C)c2nc(N(CCCN(C)C)C(=O)c3ccc4c(c3)CCCC4)sc2c1
[6]
  EC50: 0.727 µM (active)
[7]
  EC50: 4.48 µM (active)
[8]
  AC50: 13.4 µM (active)

## COc1ccc(S(=O)(=O)N2CC(C(=O)O)Oc3ccccc32)cc1 (stereo not given)
[3]
  IC50: > 100 µM (inactive)

## C[C@H](CO)N1C[C@H](C)[C@@H](CN(C)S(=O)(=O)c2ccc(Cl)cc2)Oc2c(cccc2N(C)C)C1=O
[4]
  AC50: 10.1 µM (active)

## N=C(Nc1ccccc1)Nc1ccccc1
[1]
  EC50: 10.6 µM (active)

## Cc1cc(C)c(NS(=O)(=O)c2ccc(O)c(C(=O)O)c2)c(C)c1
[5]
  IC50: > 100 µM (not active)

## CN(C)CCCNC(=O)C(=O)Nc1cc2c3c(c1)CC(=O)N3CCC2
[8]
  AC50: 15.4 µM (active)

## COc1cc(/C=C2\SC(=O)N(CCN)C2=O)ccc1OS(=O)(=O)c1cc(C)ccc1C
[8]
  AC50: 5.08 µM (active)

## Nc1ccc(/N=N/c2ccc(/C=C/c3ccc(/N=N/c4ccc(N)c5ccc(S(=O)(=O)O)cc45)cc3S(=O)(=O)O)c(S(=O)(=O)O)c2)c2cc(S(=O)(=O)O)ccc12
[9]
  GI50: > 100 µM (inactive)
[10]
  GI50: > 100 µM (inactive)
[11]
  GI50: > 100 µM (inactive)

## Clc1ccc(Cc2noc(-c3cccs3)n2)cc1
[3]
  IC50: 4.34 µM (active)

## CN1CCN(c2ccc(NC(=O)N3CCc4ccccc43)cc2)CC1
[12]
  EC50: 6.81 µM (inconclusive)
[13]
  EC50: 9.49 µM (active)
[14]
  EC50: < 0.16 µM (active)
[15]
  EC50: > 120 µM (not active)
[16]
  AC50: > 52 µM (inactive)
[17]
  AC50: 2.2 µM (active)
[18]
  AC50: 4.38 µM (active)

## Cc1cc(C(=O)CSc2nnc(C3COc4ccccc4O3)n2C)c(C)n1-c1ccc(F)cc1 (stereo not given)
[3]
  IC50: > 100 µM (inactive)

## CN(C)CC(CC1=C(CC(CN(C)C)N(C)C)CCC1)N(C)C (stereo not given)
[9]
  GI50: > 100 µM (inactive)
[10]
  GI50: > 100 µM (inactive)
[11]
  GI50: > 100 µM (inactive)

## COc1cccc2c1C(=O)c1c(O)c3c(c(O)c1C2=O)CC(O)(C(C)=O)CC3O (stereo not given)
[9]
  GI50: 1.81 µM (inactive)
[10]
  GI50: 2.07 µM (inactive)
[11]
  GI50: 1.09 µM (active)

## COc1ccc(CN(C)C[C@H]2Oc3c(NC(=O)Nc4ccc(C(F)(F)F)cc4)cccc3C(=O)N([C@H](C)CO)C[C@@H]2C)cc1
[4]
  AC50: 3.26 µM (active)
